Several values for one entry are separate records, joined by “and”; a condition that tells them apart may be missing. Equal entries are not always repeated. Structures can show the parent of a compound that is named as a salt.
System: rat pup isolation-induced ultrasonic vocalization
Assay: rat pup isolation-induced ultrasonic vocalization test
Type: in vivo
Conditions: not given
Source text: The compounds of this invention are useful as antagonists or partial agonists for the treatment of CNS and ocular disorders. […] A compound of this invention has also been assessed in an in vivo model, the rat pup isolation-induced ultrasonic vocalization test. This animal model has proven to be a sensitive and reliable method for detecting anxiolytics and antidepressants across a broad spectrum of pharmacological classes such as benzodiazepines, serotonin reuptake inhibitors, serotonin agonists and NMDA antagonists (Gardner, C.; Drug Devel. Res. 1985, 5,185-193 and Winslow, J.; Insel, T.; Psychopharmacology 1991, 105, 513-520).

**Q.** Which results are given for `Cc1ccc([C@H](C)Nc2nc(N)nc(NCCOc3ccccc3)n2)cc1` [N^2-[(1S)-1-(4-Methylphenyl)ethyl]-N^4-(2-phenoxyethyl)-1,3,5-triazine-2,4,6-triamine]?
**A.** amount of compound dosed which reduced the rat pup ultrasonic vocalization by 50% (ID50): 23.8 mg/kg; locomotor activity at doses suppressing ultrasonic vocalization: did not suppress locomotor activity; supression of rat pup ultrasonic vocalization: dose dependent and significant supression of rat pup ultrasonic vocalization

System: not given
Assay: not given
Conditions: not given

**Q.** With `C[C@H](Nc1nc(N)nc(NCCc2ccccn2)n1)c1ccc(F)cc1` (as salt: TFA) [Example 18, N^2-[(1S)-1-(4-Fluorophenyl)ethyl]-N^4-[2-(2-pyridinyl)ethyl]-1,3,5-triazine-2,4,6-triamine] as the molecule, how does the melting point read?
**A.** The melting point was 161 °C.

**Q.** Which melting point does the source give for `C[C@H](Nc1nc(N)nc(NCCOc2ccccc2)n1)c1ccccc1` (as salt: TFA) [Compound 41, N^2-[2-(Phenoxy)ethyl]-N^4-[(1S)-1-phenylethyl]-1,3,5-triazine-2,4,6-triamine] here?
**A.** The melting point was 207 to 208 °C.

Biological target: T1, human 5-HT7 receptor (Homo sapiens, UniProt P34969)
T1 construct: expressed in transfected cells; host or cells: CHO cells
Assay: 5-HT7 Receptor Binding Assay
Conditions: membranes of CHO cells expressing human 5-HT7 receptor; 1 nM 3H-5-carboxamidotryptamine; 25° C., 60 minutes
Procedure, shortened: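 Membranes from CHO cells expressing human 5-HT7, 30 ug protein per well, incubated 60 min at 25° C in 50 mM HEPES with 0.1–1000 nM test compound and 1 nM ^3H-5-carboxamidotryptamine. Non-specific binding with 10 uM serotonin. Filtration and scintillation counting; IC50 by non-linear regression.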

T1 sequence (P34969 whole entry): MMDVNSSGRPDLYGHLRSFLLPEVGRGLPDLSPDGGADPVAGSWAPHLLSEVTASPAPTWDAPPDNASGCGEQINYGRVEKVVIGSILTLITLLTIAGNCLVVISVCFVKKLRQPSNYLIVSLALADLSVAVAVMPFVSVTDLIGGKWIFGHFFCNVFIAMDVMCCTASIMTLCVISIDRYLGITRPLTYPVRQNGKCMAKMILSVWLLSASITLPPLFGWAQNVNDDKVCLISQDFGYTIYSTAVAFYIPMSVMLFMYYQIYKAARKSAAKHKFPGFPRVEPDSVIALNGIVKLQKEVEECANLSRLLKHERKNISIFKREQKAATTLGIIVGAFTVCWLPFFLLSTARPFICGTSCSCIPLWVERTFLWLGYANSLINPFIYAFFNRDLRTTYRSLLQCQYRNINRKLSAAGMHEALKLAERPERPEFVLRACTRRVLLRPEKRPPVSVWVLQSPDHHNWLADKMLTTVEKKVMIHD

**Q.** For `CC(Nc1nc(N)nc(NC[C@@H]2C[C@H]2c2ccncc2)n1)c1ccccc1` (mixture of isomers) [(±)-trans-N-(1-Phenyl-ethyl)-N′-(2-pyridin-4-yl-cyclopropylmethyl)-[1,3,5]triazine-2,4,6-triamine], which IC50 is on record?
**A.** Its IC50 is at most 50 nM.

**Q.** For `C[C@H](Nc1cc(NCCc2ccc(N)cc2)ncn1)c1ccccc1` [N^4-[2-(4-Aminophenyl)ethyl]-N^6-[(1S)-1-phenylethyl]pyrimidine-4,6-diamine], which IC50 is on record?
**A.** Its IC50 is 101 to 200 nM.

**Q.** Which IC50 does the source give for `COc1ccccc1CCNc1nc(C)cc(N[C@@H](C)c2ccccc2)n1` [N^2-[2-(2-Methoxyphenyl)ethyl]-6-methyl-N^4-[(1S)-1-phenylethyl]pyrimidine-2,4-diamine] here?
**A.** The IC50 was at most 50 nM.

**Q.** For `COc1ccc(CNc2ccnc(NCCc3ccccc3)n2)cc1` [N^4-(4-Methoxyphenylmethyl)-N^2-(2-phenylethyl)pyrimidine-2,4-diamine], which IC50 is on record?
**A.** The IC50 was at most 50 nM.

**Q.** With `C[C@H](Nc1nc(N)nc(NCCc2ccccn2)n1)c1ccc(F)cc1` [Example 18, N^2-[(1S)-1-(4-Fluorophenyl)ethyl]-N^4-[2-(2-pyridinyl)ethyl]-1,3,5-triazine-2,4,6-triamine] as the molecule, how does the IC50 read?
**A.** Its IC50 is at most 50 nM.

**Q.** With `Cc1ccc(CCNc2nc(N)nc(N[C@@H](C)c3ccc([N+](=O)[O-])cc3)n2)cc1` [Compound 79, N^2-[2-(4-Methylphenyl)ethyl]-N^4-[(1S)-1-(4-nitrophenyl)ethyl]-1,3,5-triazine-2,4,6-triamine] as the molecule, how does the IC50 read?
**A.** Its IC50 is at most 50 nM.

**Q.** Which IC50 does the source give for `Clc1ccc(CNc2ccnc(NCCc3ccccc3)n2)c(Cl)c1` [N^4-(2,4-Dichlorophenylmethyl)-N^2-(2-phenylethyl)pyrimidine-2,4-diamine] here?
**A.** The IC50 was 51 to 100 nM.

**Q.** Which IC50 does the source give for `COc1ccc(CCNc2nccc(NC(C)c3ccccc3)n2)cc1` (centres unmarked) [N^2-[2-(4-Methoxyphenyl)ethyl]-N^4-(1-phenylethyl)pyrimidine-2,4-diamine] here?
**A.** Its IC50 is 101 to 200 nM.

**Q.** Which IC50 does the source give for `C[C@H](Nc1nc(N)nc(NCCc2cccc(Cl)c2)n1)c1ccc([N+](=O)[O-])cc1` [Compound 58, N^2-[2-(3-Chlorophenyl)ethyl]-N^4-[(1S)-1-(4-nitrophenyl)ethyl]-1,3,5-triazine-2,4,6-triamine] here?
**A.** Its IC50 is 51 to 100 nM.

**Q.** For `CC(C)c1ccc(CNc2ccnc(NCCOc3ccccc3)n2)cc1` [N^4-[4-(1-Methylethyl)phenylmethyl]-N^2-(2-phenoxyethyl)pyrimidine-2,4-diamine], which IC50 is on record?
**A.** The IC50 was at most 50 nM.

**Q.** Which IC50 does the source give for `CC[C@H](Nc1nc(N)nc(NCCc2ccccc2F)n1)c1ccccc1` [Compound 51, N^2-[2-(2-Fluorophenyl)ethyl]-N^4-[(1S)-1-phenylpropyl]-1,3,5-triazine-2,4,6-triamine] here?
**A.** The IC50 was 51 to 100 nM.

**Q.** For `CC(=O)Nc1cccc(CCNc2nc(C)cc(N[C@@H](C)c3ccccc3)n2)c1` [N^2-[2-(3-Acetamidophenyl)ethyl]-6-methyl-N^4-[(1S)-1-phenylethyl]pyrimidine-2,4-diamine], which IC50 is on record?
**A.** Its IC50 is 101 to 200 nM.

**Q.** For `Clc1ccccc1CNc1ccnc(NCCc2ccccc2)n1` [N^4-(2-Chlorophenylmethyl)-N^2-(2-phenylethyl)pyrimidine-2,4-diamine], which IC50 is on record?
**A.** The IC50 was at most 50 nM.

**Q.** Which IC50 does the source give for `CC(C)(Nc1ccnc(NCCc2ccccc2)n1)c1ccccc1` [N^4-(1-Methyl-1-phenyl)ethyl)-N^2-(2-phenylethyl)pyrimidine-2,4-diamine] here?
**A.** Its IC50 is at most 50 nM.

**Q.** With `Ic1cccc(CNc2ccnc(NCCc3ccccc3)n2)c1` [Compound 25, N^4-(3-Iodophenylmethyl)-N^2-(2-phenylethyl)pyrimidine-2,4-diamine] as the molecule, how does the IC50 read?
**A.** The IC50 was at most 50 nM.

**Q.** Which IC50 does the source give for `COc1cccc(CCNc2nc(C)cc(N[C@@H](C)c3ccccc3)n2)c1` [N^2-[2-(3-Methoxyphenyl)ethyl]-6-methyl-N^4-[(1S)-1-phenylethyl]pyrimidine-2,4-diamine] here?
**A.** Its IC50 is at most 50 nM.

**Q.** Which IC50 does the source give for `Cc1ccc([C@H](C)Nc2ccnc(NCCOc3ccccc3)n2)cc1` [N^4-[(1S)-1-(4-Methylphenyl)ethyl]-N^2-(2-phenoxyethyl)pyrimidine-2,4-diamine] here?
**A.** Its IC50 is at most 50 nM.

**Q.** Which IC50 does the source give for `CC(Nc1ccnc(NCCc2c[nH]c3ccc(F)cc23)n1)c1ccccc1` (centres unmarked) [Compound 3] here?
**A.** The IC50 was 101 to 200 nM.

**Q.** Which IC50 does the source give for `FC(F)(F)c1cccc(CNc2ccnc(NCCOc3ccccc3)n2)c1` [N^2-(2-Phenoxyethyl)-N^4-[3-(trifluoromethyl)phenylmethyl]pyrimidine-2,4-diamine] here?
**A.** The IC50 was at most 50 nM.

**Q.** With `Cc1cc(N[C@@H](C)c2ccccc2)nc(NCCc2cccc(C#N)c2)n1` [N^2-[2-(3-Cyanophenyl)ethyl]-6-methyl-N^4-[(1S)-1-phenylethyl]pyrimidine-2,4-diamine] as the molecule, how does the IC50 read?
**A.** The IC50 was at most 50 nM.

**Q.** Which IC50 does the source give for `Clc1ccc(CNc2ccnc(NCCc3ccccc3)n2)cc1Cl` [N^4-(3,4-Dichlorophenylmethyl)-N^2-(2-phenylethyl)pyrimidine-2,4-diamine] here?
**A.** The IC50 was 101 to 200 nM.

**Q.** Which IC50 does the source give for `c1ccc(OCCNc2nccc(NCc3cccc4c3OCO4)n2)cc1` [N^4-(4-Benzodioxolylmethyl)-N^2-(2-phenoxyethyl)pyrimidine-2,4-diamine] here?
**A.** Its IC50 is at most 50 nM.

**Q.** Which IC50 does the source give for `CC(Nc1nc(N)nc(NC[C@@H]2C[C@H]2c2ccccc2F)n1)c1ccccc1` (mixture of isomers) [(±)-trans-N-[2-(2-Fluoro-phenyl)-cyclopropylmethyl]-N′-(1-phenyl-ethyl)-[1,3,5]triazine-2,4,6-triamine] here?
**A.** The IC50 was ≤ 100 nM and > 50 nM.

**Q.** Which IC50 does the source give for `Cc1ccc(CNc2ccnc(NCCOc3ccccc3)n2)cc1Cl` [N^4-(3-Chloro-4-methylphenylmethyl)-N^2-(2-phenoxyethyl)pyrimidine-2,4-diamine] here?
**A.** The IC50 was at most 50 nM.

**Q.** For `Cc1cc(N[C@@H](C)c2ccccc2)nc(NCCc2cccc(F)c2)n1` [N^2-[2-(3-Fluorophenyl)ethyl]-6-methyl-N^4-[(1S)-1-phenylethyl]pyrimidine-2,4-diamine], which IC50 is on record?
**A.** Its IC50 is at most 50 nM.

**Q.** Which IC50 does the source give for `CC(Nc1ccnc(NCCOc2ccccc2)n1)c1ccc(Cl)cc1` (centres unmarked) [N^4-[1-(4-Chlorophenyl)ethyl]-N^2-(2-phenoxyethyl)pyrimidine-2,4-diamine] here?
**A.** The IC50 was at most 50 nM.

**Q.** With `c1ccc(CCNc2nccc(NCc3ccccc3)n2)cc1` [N^2-(2-Phenylethyl)-N^4-(phenylmethyl)pyrimidine-2,4-diamine] as the molecule, how does the IC50 read?
**A.** Its IC50 is at most 50 nM.

**Q.** Which IC50 does the source give for `CC(Nc1ccnc(NCCc2ccccc2F)n1)c1ccccc1` (centres unmarked) [N^2-[2-(2-Fluorophenyl)ethyl]-N^4-(1-phenylethyl)pyrimidine-2,4-diamine] here?
**A.** Its IC50 is at most 50 nM.

**Q.** For `COc1cc(CCNc2nc(N)nc(N[C@@H](C)c3ccc([N+](=O)[O-])cc3)n2)ccc1O` [Compound 80, N^2-[2-(4-Hydroxy-3-methoxyphenyl)ethyl]-N^4-[(1S)-1-(4-nitrophenyl)ethyl]-1,3,5-triazine-2,4,6-triamine], which IC50 is on record?
**A.** The IC50 was at most 50 nM.

**Q.** Which IC50 does the source give for `CC[C@H](Nc1nc(N)nc(NCCc2ccc(Cl)c(Cl)c2)n1)c1ccccc1` [Compound 33, N^2-[2-(3,4-Dichlorophenyl)ethyl]-N^4-[(1S)-1-phenylpropyl]-1,3,5-triazine-2,4,6-triamine] here?
**A.** Its IC50 is 101 to 200 nM.

**Q.** For `CC(Nc1nccc(NCCOc2ccc(F)cc2)n1)c1ccccc1` (centres unmarked) [N^4-[2-(4-Fluorophenoxy)ethyl]-N^2-(1-phenylethyl)pyrimidine-2,4-diamine], which IC50 is on record?
**A.** Its IC50 is at most 50 nM.

**Q.** For `CC[C@H](Nc1nc(N)nc(NCCc2ccc(F)cc2)n1)c1ccccc1` [Compound 67, N^2-[2-(4-Fluorophenyl)ethyl]-N^4-[(1S)-1-phenylpropyl]-1,3,5-triazine-2,4,6-triamine], which IC50 is on record?
**A.** The IC50 was at most 50 nM.

**Q.** For `C[C@H](Nc1nc(N)nc(NCCOc2ccccc2)n1)c1cccc2ccccc12` [Compound 42, N^2-[(1S)-1-(1-Napthyl)ethyl]-N^4-[2-(phenoxy)ethyl]-1,3,5-triazine-2,4,6-triamine], which IC50 is on record?
**A.** The IC50 was 51 to 100 nM.

**Q.** With `C[C@H](Nc1nc(N)nc(NCCc2cccc(C#N)c2)n1)c1ccccc1` [Compound 55, N^2-[2-(3-Cyanophenyl)ethyl]-N^4-[(1S)-1-phenylethyl]-1,3,5-triazine-2,4,6-triamine] as the molecule, how does the IC50 read?
**A.** Its IC50 is 51 to 100 nM.

**Q.** With `Cc1cccc(CNc2ccnc(NCCc3ccccc3)n2)c1` [N^4-(3-Methylphenylmethyl)-N^2-(2-phenylethyl)pyrimidine-2,4-diamine] as the molecule, how does the IC50 read?
**A.** The IC50 was at most 50 nM.

**Q.** For `Fc1cc(F)cc(CNc2ccnc(NCCOc3ccccc3)n2)c1` [N^4-(3,5-Difluorophenylmethyl)-N^2-(2-phenoxyethyl)pyrimidine-2,4-diamine], which IC50 is on record?
**A.** Its IC50 is 101 to 200 nM.

**Q.** Which IC50 does the source give for `C[C@H](Nc1nc(N)nc(NCCOc2ccccc2)n1)c1ccccc1` [Compound 41, N^2-[2-(Phenoxy)ethyl]-N^4-[(1S)-1-phenylethyl]-1,3,5-triazine-2,4,6-triamine] here?
**A.** Its IC50 is 51 to 100 nM.

**Q.** Which IC50 does the source give for `CC(Nc1ccnc(NCCc2cccc3c2OCO3)n1)c1ccccc1` (centres unmarked) [N^2-[2-(4-Benzodioxolyl)ethyl]-N^4-(1-phenylethyl)pyrimidine-2,4-diamine] here?
**A.** The IC50 was 101 to 200 nM.

**Q.** With `c1ccc(CCNc2nccc(NCc3cccc4c3OCO4)n2)cc1` [N^4-(4-Benzodioxolylmethyl)-N^2-(2-phenylethyl)pyrimidine-2,4-diamine] as the molecule, how does the IC50 read?
**A.** The IC50 was at most 50 nM.

Reference: patent US6630469B2, “5-HT7 receptor antagonists” (Bristol-Myers Squibb Company, priority 2000, dated 2003)
